From ChEMBL document CHEMBL4837212, “Cytotoxic Compounds from the Stem Bark of Two subsp. of Bersama abyssinica” (J Nat Prod, 2021)
≈ marks a conversion by molar mass, not a printed value. Calls of active or inactive are those of the source. No cut-off for these calls is given here.

Assays:
KB 3-1 = assay: Cytotoxicity in human KB 3-1 cells assessed as reduction in cell viability measured after 5 days by MTT assay; type: functional, cell-based; conditions: KB 3-1, 120 h
[1] = test system: Mycolicibacterium smegmatis; assay: Antibacterial activity against Mycobacterium smegmatis DSM ATCC 700084 assessed as growth inhibition by serial dilution assay; type: functional, organism-based
Staphylococcus aureus = assay: Antibacterial activity against Staphylococcus aureus DSM 346 assessed as growth inhibition by serial dilution assay; type: functional
Escherichia coli [2] = assay: Antibacterial activity against Escherichia coli ATCC 8739 assessed as inhibition of bacterial growth measured after 18 hrs by Alamar blue assay; type: functional
Bacillus subtilis = assay: Antibacterial activity against Bacillus subtilis DSM 10 assessed as growth inhibition by serial dilution assay; type: functional
Escherichia coli [3] = assay: Antibacterial activity against Escherichia coli DSM 1116 assessed as growth inhibition by serial dilution assay; type: functional

| MIC (Escherichia coli [2]) [µM] | MIC (Bacillus subtilis) [µM] | MIC (Escherichia coli [3]) [µM] | SMILES | IC50 (KB 3-1) [nM] | Activity [1] | MIC (Staphylococcus aureus) [µM] |
| --- | --- | --- | --- | --- | --- | --- |
| – | – | – | CC12O[C@H]3C[C@@H](O1)[C@]1(C)[C@H]4CC[C@]5(C)[C@@H](c6ccc(=O)oc6)[C@@H](O)C[C@]5(O)[C@@H]4CC[C@@]1(C3)O2 | 1600 | inactive | – |
| – | – | – | COC1=C2[C@@H]3CC[C@@]45C[C@@H]6C[C@@H](OC(C)(O6)O4)[C@]5(C)[C@H]3CC[C@]2(C)[C@@H](c2ccc(=O)oc2)C1=O | – | inactive | 142 (≈ 66.8 µg/mL) |
| 36.7 (≈ 15.5 µg/mL) | 158 (≈ 66.7 µg/mL) | – | O=c1c2cc(O)c(O)cc2oc2cc(O)c([C@H]3O[C@@H](CO)[C@H](O)[C@@H](O)[C@@H]3O)c(O)c12 | – | inactive | 158 (≈ 66.7 µg/mL) |
| – | – | – | CC12O[C@H]3C[C@@H](O1)[C@]1(C)[C@H]4CC[C@@]5(C)C(=CC(=O)[C@@H]5c5ccc(=O)oc5)[C@@H]4CC[C@@]1(C3)O2 | 1400 | inactive | 152 (≈ 66.7 µg/mL) |
| – | – | 52.4 (≈ 33.4 µg/mL) | O=C(OC[C@H]1O[C@@H](OC(=O)c2cc(O)c(O)c(O)c2)[C@H](OC(=O)c2cc(O)c(O)c(O)c2)[C@@H](O)[C@@H]1O)c1cc(O)c(O)c(O)c1 | – | inactive | – |
| – | – | – | O=C(OC[C@H]1O[C@@H](OC(=O)c2cc(O)c(O)c(O)c2)[C@H](OC(=O)c2cc(O)c(O)c(O)c2)[C@@H](OC(=O)c2cc(O)c(O)c(O)c2)[C@@H]1O)c1cc(O)c(O)c(O)c1 | – | inactive | – |
